Data on eight molecules can be found in publication PMC7582656, “The Hirudo Medicinalis Microbiome Is a Source of New Antimicrobial Peptides” (International Journal of Molecular Sciences, 2020).

In brackets after ≈: the same amount, converted by molar mass. Entries after “also recorded” stand apart in the source; their conditions may differ. Read-outs that look alike come from different tables or passages of the source. Where no end group is shown, it is not given here.

One data set concerns E. coli ATCC25922. The conditions noted are these: ref Porto et al. [32]; cited from earlier work. The source says: According to numerous studies, the actions of AMPs on bacteria are diverse and appear to be dependent on the target and the peptide concentration. The speed of the antimicrobial effect of different AMPs can vary greatly.
The test system of the next data set is S. aureus ST 88. It is filed as cell-based, Staphylococcus aureus. The protocol: (§1) The minimum inhibitory concentration (MIC) of peptides was determined by the standard microtiter dilution method, as performed previously. Briefly, the MIC was determined by growing the microorganisms in 96-well microtitration plates in the presence of a two-fold serial dilution of the peptides. […] Mueller Hinton broth (MHB, BD Difco, Thermo Fisher Scientific Inc., Waltham, MA, USA) was used for all cultures, including Bacillus subtilis 168HT, Staphylococcus aureus ST 88, Staphylococcus haemolyticus 527 (clinical isolate), and Escherichia coli K12 substr. MG1655 strains. Each experiment was performed in triplicate with positive (melittin (Merck Company Inc., Kenilworth, NJ, USA)) and negative (without peptide) inhibition controls.

The next data set deals with B. subtilis 168HT. It is filed as cell-based, Bacillus subtilis. The protocol:
as §1

Data set [1] relates to McCoy cells. Kind of data set: LIVE/DEAD viability/cytotoxicity assay, fluorescent images. The format is cell-based, mouse. The conditions noted are these: 24 h. The method, then:
(§2) The cytotoxicity of peptides towards the mouse fibroblast cell line McCoy was determined via the LIVE/DEAD™ Viability/Cytotoxicity Kit (Thermo Fisher Scientific Inc., Waltham, MA, USA) according to the manufacturer′s recommendations, as performed previously. […] Melittin was used as a negative control, and McCoy cells treated without peptides were used as a positive control. After peptide exposure, cells were washed and then stained with PBS containing calcein AM and ethidium homodimer–1 at concentrations of 0.3 and 1.25 μM, respectively, for 30 min at 37 °C. After staining, the cells were washed twice with PBS. The images were captured using an epifluorescence microscope with the respective filter cubes from 10 occasionally selected fields of view captured for each well with a 20× objective. Images were captured for FITC and TRITC channels. The numbers of cells in both channels were quantified with the ImageJ software (version 1.48; RSB).

The test system of a further data set is S. haemolyticus 527. It is filed as cell-based, Staphylococcus haemolyticus. The method, then:
as §1

Data set [2] deals with E. coli K12 substr MG1655. The format is cell-based, Escherichia coli. The conditions noted are these: two-fold serial dilution, 96-well plates, Mueller Hinton broth, triplicate. The protocol: as §1
For data set [3], the system named is McCoy cells. In words: Cytotoxicity by live/dead assay and lactate dehydrogenase assay together. The format is cell-based, mouse. The conditions noted are these: 24 and 48 h, peptide at 4x MIC, live/dead fluorescence imaging and LDH assay. The protocol:
We applied two techniques: Fluorescence imaging of dead and living cells (live/dead viability/cytotoxicity assay, Table 3, Figure S2) and a colorimetric assay (lactate dehydrogenase assay, Figure S3).
as §2
The cytotoxicity of peptides was also measured by a lactate dehydrogenase (LDH) assay kit (Merck Company Inc., Kenilworth, NJ, USA) according to the manufacturer′s recommendations. Briefly, 100 μL of McCoy cells per well were seeded on 96-well culture plates at a density of 2 × 10^5 cells/mL and incubated for 24 h at 37 °C with peptides at a final concentration equal to 4× MIC. Melittin was used as a negative control, and McCoy cells treated without peptides were used as a positive control. The growth medium without peptides was used as blank absorbance readings. After the peptide treatment, the plate with cells was centrifuged for 10 min at 900 g, and 50 μL of medium from each well was transferred to another plate. Fifty microlitres of the prepared LDH kit solution were added to each well. All manipulations were performed in the dark. The absorbance of the wells was measured after 15 min incubation in the dark at wavelengths of 495 and 690 nm using a Multiscan Ascent microtiter plate reader (Thermo Fisher Scientific Inc., Waltham, MA, USA). The specific absorbance of each sample was calculated according to the equation:Absorbance = A495 nm (Test) − A495 nm (Blank) − A690 nm (Test)
The percentage of cell viability was recalculated according to the control values.

As usually defined, the MIC is the lowest concentration that inhibits growth of the organism. Read a low MIC as inhibition by little substance. As to `CC[C@H](C)[C@H](NC(=O)CN)C(=O)NCC(=O)N[C@@H](C)C(=O)N[C@H](C(=O)N[C@@H](CC(C)C)C(=O)N[C@@H](CCCCN)C(=O)N[C@H](C(=O)N[C@@H](CC(C)C)C(=O)N[C@H](C(=O)N[C@H](C(=O)NCC(=O)N[C@@H](CC(C)C)C(=O)N1CCC[C@H]1C(=O)N[C@@H](C)C(=O)N[C@@H](CC(C)C)C(=O)N[C@H](C(=O)N[C@@H](CO)C(=O)N[C@@H](Cc1c[nH]c2ccccc12)C(=O)N[C@H](C(=O)N[C@@H](CCCCN)C(=O)N[C@@H](CCCNC(=N)N)C(=O)N[C@@H](CCCCN)C(=O)N[C@@H](CCCNC(=N)N)C(=O)N[C@@H](CCC(N)=O)C(=O)N[C@@H](CCC(N)=O)C(N)=O)[C@@H](C)CC)[C@@H](C)CC)[C@@H](C)O)[C@@H](C)O)C(C)C)C(C)C` [Melittin, melittin, reference compound], the “Time to kill E. coli ATCC25922” value with E. coli ATCC25922 is 10 s. Besides, the minimum inhibitory concentration (MIC) in the data set with S. aureus ST 88 (S. aureus ST 88 (MRSA), two-fold serial dilution, 96-well plates, Mueller Hinton broth, triplicate) came to 1.5 µM (≈ 4.27 µg/mL); in the data set on B. subtilis 168HT (B. subtilis 168HT, two-fold serial dilution, 96-well plates, Mueller Hinton broth, triplicate) it was 1.5 µM (≈ 4.27 µg/mL); with S. haemolyticus 527 (S. haemolyticus 527 (clinical isolate), two-fold serial dilution, 96-well plates, Mueller Hinton broth, triplicate) it was 5.7 µM (≈ 16.2 µg/mL); in data set [2] it was 5.7 µM (≈ 16.2 µg/mL). Moreover, the “Cell Viability, %” value in the data set on McCoy cells [1] (McCoy cells, 37 °C, peptide at 4× MIC, calcein AM / ethidium homodimer-1 staining, fluorescent images, mean ± SD (n = 3)) is given as 0.3 ± 0.1 %.
As for FLIGKAIKRKFCLRSVWNA-NH2 [pept_1545], the values for the MIC against S. aureus ST 88 (ST 88) and with B. subtilis 168HT (168HT) were above 100 µM and 7.2 µM, respectively. In the data set with McCoy cells [1] (4 MIC), the “Cell Viability, %” value was 98.7 ± 1.3%. Further, the “Cytotoxicity (in words)” value in the data set on McCoy cells [3] is recorded as “did not exert any inhibition of cell growth even after 48 h; also recorded: did not cause cell death”.
Turning to FVKILAKLVNYAKN [pept_970], the MIC against S. aureus ST 88 (ST 88) is above 100 µM; against B. subtilis 168HT (168HT), 19.8 µM; in the data set on S. haemolyticus 527 (527), above 100 µM. Moreover, in the data set on McCoy cells [1] (4 MIC), the “Cell Viability, %” value was 2.7 ± 2.1 %. Also, in the data set on McCoy cells [3], the “Cytotoxicity (in words)” value is reported as “strong cytotoxicity comparable to melittin”.
For the molecule IGRHFKRRNSIWGICWF [pept_1303], the MIC was above 100 µM in the data set with S. aureus ST 88 (ST 88) and 14.8 µM in the data set with B. subtilis 168HT (168HT). Further, the “Cell Viability, %” value with McCoy cells [1] (4 MIC) was 25.1 ± 8.3 %. Further, the “Cytotoxicity (in words)” value in the data set with McCoy cells [3] is “reduced the cell viability to a lesser but still severe degree”.
As to IVKRFFRISYKLQSLKIIKGKRTFT [pept_84], the MIC in the data set on S. aureus ST 88 (ST 88) is above 100 µM; in the data set on B. subtilis 168HT (168HT), 5.3 µM; in the data set on S. haemolyticus 527 (527) it was 5.3 µM. For the same molecule, the “Cell Viability, %” value in the data set with McCoy cells [1] (4 MIC) worked out at 11.2 ± 7.4 %. Moreover, in the data set with McCoy cells [3], the “Cytotoxicity (in words)” value is “reduced the cell viability to a lesser but still severe degree”.
On to KKGKSFKQLHIIVHLVKSWLRTILTHI [pept_352], for which the MIC in the data set with S. aureus ST 88 (ST 88) amounted to 19.9 µM; in the data set with B. subtilis 168HT (168HT) it was 10 µM; against S. haemolyticus 527 (527), 10 µM. The “Cell Viability, %” value in the data set with McCoy cells [1] (4 MIC) is reported as 0.2 ± 0.1 %. Besides, the “Cytotoxicity (in words)” value in the data set on McCoy cells [3] is given as “strong cytotoxicity comparable to melittin”.
Regarding VLIRGLIHMLRGG [pept_148], the MIC against S. aureus ST 88 (ST 88) was above 100 µM; in the data set with B. subtilis 168HT (168HT), 22.4 µM; in the data set with S. haemolyticus 527 (527), above 100 µM. Moreover, the “Cell Viability, %” value in the data set with McCoy cells [1] (4 MIC) stood at 98.3 ± 0.9%. The “Cytotoxicity (in words)” value in the data set on McCoy cells [3] is recorded as “did not exert any inhibition of cell growth even after 48 h; also recorded: did not cause cell death”.
With guavanin 2, in the data set with E. coli ATCC25922, the “Time of lytic effect” value is on record as 10 min.
